Laboratory results taken from patent US20200383327A1, “METHOD OF IMPROVING PLANT PERFORMANCE” (The State of Israel, Ministry of Agriculture & Rural …, priority 2018, published 2020).

Columns and labels:
Type in all cases: in vivo
Lasiodiplodia = experiment: Spots and pitting of infected mango fruits under 7° C.; conditions: post-harvest treated and infested mango
Method: (§1) FIGS. 19A-19G are images and graphs showing the effect of Phe solution on fruit post-harvest rotting under cold temperature resistance. (19A-19B) are images showing post-harvest control and treated mango fruits, respectively, stored in 7° C. […] (19C-19D) are vertical bar graphs showing indices of spots (19C) and pitting (19D) of mango fruits infected by Colletotrichum or Lasiodiplodia under 7° C. (19E-19G) are vertical bar graph showing […] decay was shown at 7° C., and side decay and total decay were shown at 7° C. and 10° C.
(§2) Mango fruits were treated with Phe solution post-harvest. Fruits were stored in either 7° C. or 10° C., and decay was inspected and documented. Post-harvest treatment as described hereinabove reduced stem decay, side decay, and total decay (FIGS. 19E-19G). […] Fruits were both treated with AAA and infested with […] post-harvest. […] (FIGS. 19C-19D).

Colletotrichum = experiment: as above; conditions: post-harvest treated and infested mango
Method: as §1, §2

[1] = Plant crop production (fruits)
Method: FIGS. 21A-21D are bar graphs showing the effects of 1-4 mM solution on plant crop production (e.g., fruits). Plants were treated with 2 mM once or twice, once with 4 mM or non-treated (control). (21A) is a graph showing the cumulative weight of fruits per plant. (21B) is a graph showing the number of fruits per plant. (21C) is a graph showing the average weight of a fruit. (21D) is a graph showing the number of young fruits, e.g., “set fruit”.

Tetranychus urticae = experiment: Red spider mite damage on tomato plants, natural infestation in greenhouse; conditions: 4 mM Phe solution, drench or spray, each treatment; AUDPC during 30 days; FIG. 9
Method: FIG. 9 is a bar graph showing the effect of 4 mM Phe solution on the severity of Tetranychus urticae red spider mite on leaves of tomato plants. The Phe solution was applied by spraying and by drench on the tomato plants at 3 days before and 4 hours before incubation in the greenhouse. Symptoms severity was evaluated on a scale of 0-100% severity of symptoms coverage during 30 days after treatment and it is expressed as the area under disease progress curve (AUDPC).
The red spider mite Tetranychus urticae Koch, (also two-spotted spider mite) occurred naturally on the treated tomato plants. The plants were kept in a greenhouse with 18-28° C. Typical scratching symptoms severity were evaluated on each plant; 0=no infection (all leaves are symptomless) and 100=leaves were fully covered by symptoms.

Botrytis cinerea = experiment: Tomato gray mold severity on leaves of tomato plants
Method: Plants of tomato (Solanum esculentum) and cucumber (Cucumis sativus) were grown from seeds in a nursery and transplanted into 1-liter pots at 40 to 50 days after seeding in an unheated greenhouse. Plants were fertilized proportionally with drippers 2-3 times per day with 5:3:8 NPK fertilizer (irrigation water was planned to have total N, P and K concentrations of 120, 30 and 150 mg/L, respectively; EC 2.2 dS/m), allowing for 25-50% drainage. Plants were maintained at 20 to 30° C. with natural light, and relative humidity of 50-90% in a pest- and disease-free greenhouse during the growth period and then transferred to an area where diseases were allowed to develop following pathogen infection on intact leaves as described below.
Treatments in experiments were replicated 5-10 times. Replicates of each treatment were arranged randomly. Disease severity data in percentages were arcsin-transformed before further analysis. Disease severity data were analyzed using ANOVA and Fisher's protected LSD test. Standard errors (SE) of the means were calculated and disease levels were statistically separated (P≤0.05) following a one-way analysis of variance. A control experiment presents the severity of the disease with application of only water without the Phe.
Gray mold inducing pathogen Botrytis cinerea [Pers.:Fr. [Teleomorph: Botryotinia fuckeliana (de Bary) Whetzel] (isolate BcI16; [Swartzberg D. et al., Eur. J. Plant Pathol., 2008, 120:289-297])] was cultured on potato dextrose agar (PDA, Difco, Detroit, Mich.) in 90 mm diam. petri dishes containing 15 ml PDA each and incubated at 20° C. The inoculum was maintained on PDA and transferred every two weeks. Gray mold conidia were harvested from 10 to 14-day-old cultures by agitating 1 cm^2 of agar bearing mycelium and conidia in a glass tube with tap water. The suspension was then filtered through cheesecloth. The concentration of conidia was determined using a hemocytometer and a light microscope, and adjusted to 5×10^5 conidia/ml. Since B. cinerea conidia need carbon and phosphate for germination and penetration, 0.1% glucose was added to the final conidial suspension together with 0.1% KH2PO4. […] Plant attached tomato leaves were examined. Whole plants were kept in a humidity chamber at 20±1° C., 97±3% RH, and 1,020 lux light intensity. Plants were infected by spraying the whole plant with 2 ml of a 5×10^5 conidia/ml suspension or were infected after wounding with a needle and dropping 10 μL drops of conidia suspension prepared as mentioned above. Disease severity was evaluated on each plant using a pictorial key; 0=no infection (all leaves are symptomless) and 100=all leaves are fully covered by gray mold symptoms.

N[C@@H](Cc1ccccc1)C(=O)O [Phe, Phenylalanine]
Levels of black spots (Lasiodiplodia; FIG. 19C): substantially reduced levels
Levels of pitting (Lasiodiplodia; FIG. 19D): substantially reduced levels
Levels of black spots (Colletotrichum; FIG. 19C): substantially reduced levels
Levels of pitting (Colletotrichum; FIG. 19D): substantially reduced levels
Number of young fruits (set fruit) ([1]; 4 mM-treated plants vs control, FIG. 21D): greater number of young fruits
Total crop yielded (fruits) ([1]; Phe solution vs control): significantly increased the total crop yielded
Cumulative fruit weight ([1]; Phe treated vs control): significantly greater cumulative fruit weight
Number of fruits ([1]; Phe treated vs control): comparable amount
Average weight per fruit ([1]; Phe treated vs control, FIG. 21C): significantly greater average weight per fruit
Severity of damage of the Tetranychus urticae red spider mite on tomato leaves (Tetranychus urticae): significantly suppressed
Disease control effect on severity of tomato gray mold (Botrytis cinerea; 4 mM vs 2 mM Phe, drench to the root zone, FIG. 14): significantly better disease control effect than 2 mM
Disease control effect on severity of tomato gray mold (Botrytis cinerea; 4 mM vs 2 mM Phe, sprayed or drenched, wound infection, 1-4 mM series, FIG. 16): significantly better disease control effect than 2 mM
Disease control effect on severity of tomato gray mold (Botrytis cinerea; 4 mM vs 2 mM Phe, sprayed or drenched, wound infection, 2-4 mM series, FIG. 17): significantly better disease control effect than 2 mM
Disease control effect on severity of tomato gray mold (Botrytis cinerea; 4 and 8 mM vs 2 mM Phe, sprayed, FIG. 15): significantly better disease control effect than 2 mM
